According to patent publication US20180185370A1, “PYRAZINOQUINAZOLINONE DERIVATIVES WITH ANTIBACTERIAL ACTIVITY, METHODS AND USES THEREOF” (UNIVERSIDADE DO PORTO, priority 2015, published 2018):
Values after ≈ are worked out from the molar mass of the structure shown.

Key:
[1] = system: S. aureus ATCC 25923; test: Antibacterial susceptibility testing, broth microdilution (MIC/MBC); type: cell-based, Staphylococcus aureus
Description: (§1) Bacterial strains and growth conditions. Five reference strains, Staphylococcus aureus ATCC 25923, Bacillus subtilis ATCC 6633, E. faecalis ATCC 29212, Escherichia coli ATCC 25922 and Pseudomonas aeruginosa ATCC 27853, and three multidrug-resistant isolates from environment, S. aureus B1 (a MRSA isolated from public buses), Enterococcus faecalis W1 (a VRE isolated from river water) and E. coli G1 (isolated from seagull feces) were used. Bacteria were grown overnight at 37° C. in Mueller-Hinton agar (MH—BioKar diagnostics, Allonne, France) prior to obtain be used in the subsequently described bioassays.
(§2) Antibacterial susceptibility testing. The minimum inhibitory concentration (MIC) values of the compounds of FIGS. 1D, 1E, 1G, 1H (equation i-iv) and 11 (equations v-x) were determined, in particular, by a broth microdilution technique, following the recommendations of the Clinical and Laboratory Standards Institute. Stock solutions of 10 mg/ml in DMSO were used to prepare in-test concentrations ranging from 2 to 256 μg/ml. Ciprofloxacin in the concentration range from 0.03125 to 16 μg/ml was used, in particular, as control drug in the experiment. The MIC was defined as the lowest concentration of compound that has inhibited the visible growth. The minimum bactericidal concentration (MBC) was determined by spreading on MH plates, 10 μL collected from the wells corresponding to the MIC and to higher concentrations, with further incubation for 24 h at 37° C.; the lowest concentration at which no growth occurred on MH was defined as the MBC.

[2] = system: S. aureus B1 (MRSA); test: as above; type: cell-based, Staphylococcus aureus; settings: S. aureus B1 (MRSA)
Description: as §1, §2

[3] = system: B. subtilis ATCC 6633; test: as above; type: cell-based, Bacillus subtilis
Description: as §1, §2

[4] = system: P. aeruginosa ATCC 27853; test: Antibacterial susceptibility testing, broth microdilution (MIC); type: cell-based, Pseudomonas aeruginosa
Description: as §1, §2

[5] = system: E. coli ATCC 25922; test: as above; type: cell-based, Escherichia coli
Description: as §1, §2

[6] = system: E. faecalis ATCC 29212; test: Antibacterial susceptibility testing, broth microdilution (MIC/MBC); type: cell-based, Enterococcus faecalis
Description: as §1, §2

[7] = system: E. faecalis W1 (VRE); test: as above; type: cell-based, Enterococcus faecalis; settings: E. faecalis W1 (VRE)
Description: as §1, §2

[8] = system: S. aureus and E. faecalis strains; test: Antibacterial susceptibility testing; type: cell-based
Description: as §1, §2

[9] = system: S. aureus ATCC 25923, E. faecalis ATCC 29212, S. aureus B1 and E. faecalis W1; test: Inhibition of biofilm formation, crystal violet assay; type: cell-based; settings: for biofilm formation (biomass, crystal violet): 24 h
Description: The efficacy of neofiscalin A was also evaluated in hampering the biofilm formation. Neofiscalin A, in particular, at concentrations of 2×MIC, MIC, ½×MIC and ¼×MIC was added to bacterial suspensions of 1×10^6 CFU/ml in Tryptic Soy Broth (TSB—BioKar diagnostics, Allonne, France) of S. aureus ATCC 25923, E. faecalis ATCC 29212, S. aureus B1 and E. faecalis W1. Bacterial suspensions in absence of the compound were used as controls. Biofilm formation was induced, in particular, in 96-well flat-bottomed microtiter plates (200 μL/well) for 24 h at 37° C. After that time, biofilm biomass was quantified through the crystal violet assay as follows: the planktonic phase was discharged, then the biofilm was stained with 0.5% crystal violet for 5 min, rinsed with water, air dried and eluted with acetic acid 33% (v/v). The optical density was measured at 595 nm (0D595) using a microplate reader (iMark™ microplate absorbance reader, Bio-Rad Laboratories, Hercules, Calif., USA). Two independent experiments were performed in triplicate for each experimental condition. The statistical significance of the difference between biofilm controls and biofilms in the presence of different concentrations of compounds was evaluated using Student's t test. In both cases, probability levels <0.05 were considered statistically significant. Additionally, a microscopic visualization of the biofilms of S. aureus B1 and E. faecalis W1 was performed, in particular, using the Live/Dead BacLight viability kit (Life Technologies—Molecular Probes, Carlsbad, Calif., USA). Biofilms were formed, in particular, in 35-mm diameter polystyrene plates using TSB (control) and TSB supplemented with the MIC or ¼×MIC of neofiscalin A. After 24 h at 37° C., the planktonic phase was removed from each plate and the biofilms were washed with PBS, stained with the appropriate mixture of SYTO 9 and propidium iodide stains and incubated for 20 min at room temperature, in particular 20-25° C., in the dark; then, biofilms were rinsed and examined under a fluorescence microscope (BX41 Microscope, Olympus America Inc., Center Valley, Pa., USA). Images were recorded at an emission wavelength of 500 nm for SYTO 9 (green fluorescence) and of 635 nm for propidium iodide (red fluorescence).

[10] = system: S. aureus B1 and E. faecalis W1; test: Microscopic visualization of biofilms, Live/Dead staining; type: cell-based; settings: 24 h
Description: The efficacy of neofiscalin A was also evaluated in hampering the biofilm formation. Neofiscalin A, in particular, at concentrations of 2×MIC, MIC, ½×MIC and ¼×MIC was added to bacterial suspensions of 1×10^6 CFU/ml in Tryptic Soy Broth (TSB—BioKar diagnostics, Allonne, France) of S. aureus ATCC 25923, E. faecalis ATCC 29212, S. aureus B1 and E. faecalis W1. Bacterial suspensions in absence of the compound were used as controls. Biofilm formation was induced, in particular, in 96-well flat-bottomed microtiter plates (200 μL/well) for 24 h at 37° C. After that time, biofilm biomass was quantified through the crystal violet assay as follows: the planktonic phase was discharged, then the biofilm was stained with 0.5% crystal violet for 5 min, rinsed with water, air dried and eluted with acetic acid 33% (v/v). The optical density was measured at 595 nm (0D595) using a microplate reader (iMark™ microplate absorbance reader, Bio-Rad Laboratories, Hercules, Calif., USA). Two independent experiments were performed in triplicate for each experimental condition. The statistical significance of the difference between biofilm controls and biofilms in the presence of different concentrations of compounds was evaluated using Student's t test. […] Images were recorded at an emission wavelength of 500 nm for SYTO 9 (green fluorescence) and of 635 nm for propidium iodide (red fluorescence).

[11] = system: S. aureus B1; test: Biofilm inhibitory and biofilm eradication concentrations on 24-h mature biofilms; type: cell-based, Staphylococcus aureus
Description: (§3) Determination of neofiscalin A biofilm inhibitory and biofilm eradication concentrations. The efficacy of neofiscalin A on 24-h mature biofilms of S. aureus B1 and E. faecalis W1 was also evaluated, in particular, by determining the BIC and the BEC. […] The optical density at 595 nm was measured at time 0 and after incubation for 24 h at 37° C. The BIC was determined as the lowest concentration of the compound inhibiting growth in the supernatant fluid, confirmed by no increase in the optical density compared with the initial reading. The BEC was determined as the lowest concentration that prevented regrowth of biofilm cells on tryptic soy agar plates.

[12] = system: E. faecalis W1; test: as above; type: cell-based, Enterococcus faecalis
Description: as §3

[13] = system: S. aureus B1; test: Biofilm metabolic activity after treatment, MTT; type: cell-based, Staphylococcus aureus; settings: 24-h biofilms of S. aureus B1 treated for 24 h with 200 μg/ml
Description: (§4) Evaluation of the biofilm metabolic activity after treatment with different concentrations of neofiscalin A. Twenty four-hours biofilms of S. aureus B1 and E. faecalis W1 formed as above described were subsequently treated with high concentrations of neofiscalin A, in particular up to 25×MIC. After 24 h of incubation at 37° C., the bacterial metabolic activity of biofilms was quantified using the 3-(4,5-dimethylthiazole-2-yl)-2,5-diphenyl tetrazolium bromide (MTT, Sigma-Aldrich, St Louis, USA). MTT is used to assess cell viability as a function of redox potential. Actively respiring cells convert the water-soluble MU to an insoluble purple formazan. The formazan is then solubilized and its concentration determined by optical density. In this assay, biofilms were treated with MU (0.5 mg/ml) for 2 h at 37° C. in the dark. DMSO was used to extract the formazan dye product and then the absorbance at 550 nm was measured.

[14] = system: E. faecalis W1; test: Biofilm metabolic activity after treatment, MTT; type: cell-based, Enterococcus faecalis; settings: 24-h biofilms of E. faecalis W1 treated for 24 h with 200 μg/ml
Description: as §4

CC(C)[C@@H]1NC(=O)[C@@H](C[C@]2(O)c3ccccc3N3C(=O)[C@@H](C)N[C@H]32)n2c1nc1ccccc1c2=O [FIG. 1I (eq. ix), neofiscalin A] was tested. Which “Minimum bactericidal concentration-MBC” value [1] did it give?
Its value is 16 µg/mL (≈ 33.8 µM).

And the “Minimum inhibitory concentration-MIC” value [1]?
The value was 8 µg/mL (≈ 16.9 µM).

And the “Minimum bactericidal concentration-MBC” value [2]?
The value was 32 µg/mL (≈ 67.6 µM).

What about the “Minimum inhibitory concentration-MIC” value [2] of the same compound?
The value was 8 µg/mL (≈ 16.9 µM).

What about the “Minimum bactericidal concentration-MBC” value [3] of the same compound?
Its value is greater than 256 µg/mL.

And the “Minimum inhibitory concentration-MIC” value [3]?
Its value is 128 µg/mL (≈ 270 µM).

What about the “Minimum inhibitory concentration-MIC” value [4] of the same compound?
The value was greater than 256 µg/mL.

What about the “Minimum inhibitory concentration-MIC” value [5] of the same compound?
The value was greater than 256 µg/mL.

What about the “Minimum bactericidal concentration-MBC” value [6] of the same compound?
Its value is 32 µg/mL (≈ 67.6 µM).

And the “Minimum inhibitory concentration-MIC” value [6]?
The value was 8 µg/mL (≈ 16.9 µM).

And the “Minimum bactericidal concentration-MBC” value [7]?
The value was 32 µg/mL (≈ 67.6 µM).

What about the “Minimum inhibitory concentration-MIC” value [7] of the same compound?
Its value is 8 µg/mL (≈ 16.9 µM).

And the MIC value ([8]; S. aureus and E. faecalis strains, including multidrug-resistant isolates (MRSA, VRE))?
Its MIC value is 8 µg/mL (≈ 16.9 µM).

What about the “MBC relative to the MIC” value ([8]; Table 3 versus Table 2) of the same compound?
Its value is “usually four times higher than the MIC”.

What about the antibacterial activity ([8]; reference strains and multidrug-resistant isolates, highest concentration tested 256 μg/ml) of the same compound?
Its antibacterial activity is “presented antibacterial activity against Gram-positive bacteria”.

What about the “biofilm formation (biomass, crystal violet)” value ([9]; 2×MIC and MIC) of the same compound?
Its value is “none of the strains was able to form a biofilm”.

And the biofilm formation ([9]; MRSA and VRE strains)?
The biofilm formation was “inhibit the biofilm formation”.

What about the “biofilm formation (biomass, crystal violet)” value ([9]; ¼×MIC) of the same compound?
Its value is “allowed the formation of a larger biofilm, but smaller than that observed in the control group”.

What about the “biofilm formation (biomass, crystal violet)” value ([9]; ½×MIC) of the same compound?
Its value is “the strains did not succeed in forming much biofilm”.

And the “biofilm formation (Live/Dead microscopy)” value ([10]; at the MIC)?
Its value is “no biofilm was produced”.

And the “biofilm formation (Live/Dead microscopy)” value ([10]; ¼×MIC)?
Its value is “a biofilm was formed (FIG. 4C), though it was not as large as in the control”.

And the “biofilm inhibitory concentration (BIC)” value ([11]; 24-h biofilms of S. aureus B1 (MRSA))?
The value was 96 µg/mL.

And the “biofilm eradication concentration (BEC)” value ([11]; 24-h biofilms of S. aureus B1, higher than 25×MIC)?
Its value is greater than 200 µg/mL.

What about the “biofilm inhibitory concentration (BIC)” value ([12]; 24-h biofilms of E. faecalis W1 (VRE)) of the same compound?
Its value is 80 µg/mL.

And the “biofilm eradication concentration (BEC)” value ([12]; 24-h biofilms of E. faecalis W1, higher than 25×MIC)?
The value was greater than 200 µg/mL.

And the “reduction of metabolic activity of biofilm (MTT)” value [13]?
Its value is roughly 50%.

And the “reduction of metabolic activity of biofilm (MTT)” value [14]?
The value was roughly 50%.
